Laboratory results: PubChem BioAssay (NCI)
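A five-concentration, 48-hour dose response in 96-well plates underlies each endpoint, interpolated linearly between surrounding concentrations. The concentration for 50% growth inhibition is given as GI50. TGI: concentration producing complete growth inhibition.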

Legend:
Experiment in all cases: DTP human tumour cell line panel, 48 h
[1] = test system: SNB-78 CNS
[2] = test system: DMS 114 small cell lung
[3] = test system: LXFL 529 NSCLC
[4] = test system: CAKI-1 renal
[5] = test system: IGROV1 ovarian
[6] = test system: DMS 273 small cell lung
[7] = test system: XF 498 CNS
[8] = test system: CCRF-CEM leukemia
[9] = test system: T-47D breast
[10] = test system: BT-549 breast

| SMILES | TGI [1] [µM] | TGI [2] [µM] | TGI [3] [µM] | TGI [4] [µM] | TGI [5] [µM] | TGI [6] [µM] | TGI [7] [µM] | TGI [8] [µM] | GI50 [8] [µM] | GI50 [1] [µM] | GI50 [3] [µM] | GI50 [4] [µM] | GI50 [5] [µM] | GI50 [6] [µM] | TGI [9] [µM] | TGI [10] [µM] |
| --- | --- | --- | --- | --- | --- | --- | --- | --- | --- | --- | --- | --- | --- | --- | --- | --- |
| NC(=S)N/N=C1/C(=O)N(c2ccccc2)C(=O)C1C(=O)Nc1ccccc1 (stereo unspecified) | > 100 | > 100 | > 100 | > 100 | > 100 | > 100 | > 100 |  |  |  |  |  |  |  |  |  |
| COc1cc2ccnc(-c3n[nH]c4cc(OC)c(OC)cc34)c2cc1OC |  | > 100 | > 100 | > 100 | > 100 | > 100 | > 100 | > 100 |  |  |  |  |  |  |  |  |
| COC(=O)CCC(=O)Nc1cc(C)ccc1C | > 100 | > 100 | > 100 | > 100 | > 100 | > 100 | > 100 | > 100 |  |  |  |  |  |  |  |  |
| Cc1c(-c2cc(-c3ccccc3)n[nH]c2=O)c2ccccc2n1C | > 100 | > 100 | > 100 | > 100 | > 100 | > 100 | > 100 | > 100 |  |  |  |  |  |  |  |  |
| C=CC(=O)OCCCS(=O)(=O)[O-].C=CC(=O)OCCCS(=O)(=O)[O-].NC1CCCCC1N.[Pt+4] | > 25 |  | > 25 | > 25 | > 25 | > 25 |  | > 25 | > 25 | > 25 | > 25 | > 25 | > 25 | > 25 |  |  |
| COc1cc2c(cc1OC)C(Cc1cc(Br)c(OC)c(OC)c1)=[N+](C)CC2 | > 100 | 57 | > 100 | > 100 | > 100 |  |  | > 100 |  |  |  |  |  |  |  |  |
| COc1ccccc1NC(=O)C1=C(C)NC(C)=C(C(=O)Nc2ccccc2OC)C1c1ccc(C2C(C(=O)Nc3ccccc3OC)=C(C)NC(C)=C2C(=O)Nc2ccccc2OC)cc1 | 23.3 | 21.6 | 5.09 | 11.3 | 3.89 | 8.67 | 5.64 | 5.71 |  |  |  |  |  |  |  |  |
| Nc1ncnc2c1N=CN(Oc1ccccc1)N2 | > 100 | > 100 | > 100 | > 100 | > 100 | > 100 | > 100 |  |  |  |  |  |  |  |  |  |
| CN(C)C(=S)/N=C(\N)N(C)C | > 100 | > 100 | > 100 | > 100 | > 100 | > 100 | > 100 | > 100 |  |  |  |  |  |  |  |  |
| CC/C(=N/O)C(C)C(=O)CCC(=O)Nc1ccc(Cl)cc1 (stereo unspecified) | > 100 | > 100 | > 100 | > 100 | > 100 | > 100 | > 100 | > 100 |  |  |  |  |  |  |  |  |
| OCC(O)C(OC1OC(CO)C(O)C(O)C1O)c1nn(-c2ccc(Cl)cc2)c2nc3cc(Cl)c(Cl)cc3nc12 (stereo unspecified) | > 100 | > 100 | > 100 |  |  |  | > 100 | > 100 |  |  |  |  |  |  |  |  |
| O=C(/C=C/c1ccco1)N1CCN(Cc2ccccc2)CC1 | > 100 | > 100 | > 100 | > 100 | > 100 | > 100 | > 100 | > 100 |  |  |  |  |  |  |  |  |
| COC(=O)c1ccc(N/C=C(/C#N)c2ccsc2)cc1 | 43.4 | 43.8 | 37.5 | 30.5 | 65.2 | 37.4 |  | > 100 |  |  |  |  |  |  |  |  |
| CCCCCCCCCCCc1cc(=O)c2c(O)cccc2o1 | > 100 | > 100 | > 100 | > 100 | > 100 | > 100 | > 100 | 83.7 |  |  |  |  |  |  |  |  |
| CC(C)CCCC(C)[C@H]1CCC2C3CC=C4C[C@@H](OC(=O)CC(CC(=O)[O-])C(=O)[O-])CC[C@]4(C)C3CC[C@@]21C.N.N.[Pt+4] (stereo partly specified) | > 100 |  |  | > 100 | > 100 | > 100 |  | > 100 | > 100 | > 100 |  | > 100 | > 100 | > 100 |  |  |
| COc1ccccc1C(=O)Nc1ccc(Cl)c(C(=O)OC(C)C)c1 | > 100 | 63.8 |  | > 100 | > 100 | > 100 | 54.7 | > 92.7 |  |  |  |  |  |  | 60.1 | > 100 |
